Reference: patent US20080045499A1, “Preferential Inhibition of Presenilin-1” (Elan Pharmaceuticals, Inc., priority 2006, published 2008)

Tests used:
PS2/1C = experiment: Inhibition of chimeric presenilin PS2/1C; format: cell-based, human; settings: chimeric PS1/PS2 molecule, FIG. 11
Description: Human PS1, PS2, and APPsw cDNA inserts were subcloned into pCF vector, which was modified with pcDNA3 (Invitrogen, CA, USA) by inserting the adenoviral tripartite leader sequence (Berkner et al, (1987) J. Virol. April; 61(4): 1213-20. Abundant expression of polyomavirus middle T antigen and dihydrofolate reductase in an adenovirus recombinant) 38 bp upstream of the starting ATG codon, between the CMV promoter and the EcoR1 site. Construction of presenilin chimeras was PCR-based. For making chimeras that contain PS1backbone and a PS2 fragment, we first generated a large PCR fragment that contained the entire pCF vector plus all PS1 sequence to be retained, and a small PCR fragment that only contained the PS2 fragment to be used in the final chimera. The two PCR fragments were then ligated in a blunt-end fashion by Rapid DNA ligation kit (Roche, Ind., USA). We used pfu Turbo DNA polymerase kit (Strategene, Calif., USA) for all PCR reactions. To avoid potential mutations introduced by PCR, we first sequenced the entire insert in both strands. […] For making chimeras that contained PS2 backbone and a PS1 fragment, we first generated a large PCR fragment that contained the entire pCF vector plus all PS2 sequence to be retained, and a small PCR fragment that only contained the PS1 fragment to be used in the final chimera. All other cloning procedures were the same as described above. […]

[1] = system: Presenilin-1-comprised γ-secretase relative to Presenilin-2-comprised γ-secretase; experiment: PS1/PS2 selectivity: ratio of EC50 in Presenilin-2 and Presenilin-1 transfected cells; format: cell-based, human; settings: mean values from 2 independent experiments (FIG. 11)
Description: EC50 values were derived by curve fitting of Aβ1-x levels, for samples treated with various concentrations of gamma secretase inhibitors, with XLfit software program (IDBS, Alameda, Calif., USA). Differences in EC50 values obtained for Presenilin-1 transfected cells and Presenilin-2 transfected cells exposed to a test compound served as an indicator of differential inhibition.
Cell culture medium is then removed from the transfected cell lines and analyzed for Aβ1-x levels by ELISA assay, as described in Example 1. ELISA assays are performed using ELISA plates coated with the mAb 266 to capture Aβ peptides and then by detecting Aβ peptides with biotinylated mAb 3D6. EC50 values are derived for all of the test compounds. Differences in EC50 values obtained for Presenilin-1 transfected cells and Presenilin-2 transfected cells exposed to a test compound serve as an indicator of differential inhibition.
For example, several tested compounds are sulfonamide compounds, while several are non-sulfonamide compounds. The ratio of the EC50 value obtained for Presenilin-2 transfected cells and Presenilin-1 transfected cells (indicated in the last column of Table I) indicates the degree to which the test compound is capable of preferentially inhibiting Presenilin-1. […] In Table 2, the values shown in columns A, B and C are EC50 values (nM). Where inhibition was very low, EC50 values were not generated by the program; thus EC50 values are not provided. Rather, percent of inhibition was estimated based on the inhibition curve generated by the program. Percentages indicate percentage inhibition at a compound concentration of 10 uM. […]

BMS299897 [reference compound] was tested, and the “inhibitor potencies against PS2/1C compared with PS1” value (PS2/1C) was “behaved just like PS1” and the “fold more selective for PS1” value [1] was ~35 fold.
